Earlier results in patent US20020013261A1, “Methods and compositions for promoting angiogenesis using polyethylene glycol (PEG) polymers” (priority 2000, published 2002).

Tested on: vascularization
Details: purified recombinant protein injected into ischemic skeletal muscle tissue, rabbit chronic limb ischemia

basic fibroblast growth factor (bFGF): purified recombinant angiogenic protein
vascularization: modest but significant vascularization
